Experimental data taken from ChEMBL document CHEMBL1201862, “PubChem BioAssay data set” (2004).
Activity calls are given as the source filed them.

Tests used:
[1] = viability of uninfected HEp-2 cells – cell-based, HTS, cytotoxicity control for RSV inhibitor project, dose response (AID 2410); assay type: functional; conditions: human respiratory syncytial virus
[2] = Luminescence Cell-Based Dose Retest to Confirm Inhibitors of Cancer Stem Cells. [Related pubchem assays (depositor defined):AID2717, AID2721]; assay type: functional; conditions: Homo sapiens
H9c2 = experiment: cells; assay type: functional, cell-based; conditions: Rattus norvegicus, H9c2, Myocardium;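 further: confirmatory concentration-response retest of ultra-high-throughput screening hits for modulation of myocardial damage; cell death induced by hydrogen peroxide oxidative stress; compound pretreatment for 60 min then peroxide exposure for 2 h; potency is for protecting the cells against peroxide damage rather than for killing them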
INS1 = experiment: INS-1E survival protection against cytokine death – cell-based, luminescence, retest, dose response (AID 449756); assay type: functional; conditions: Rattus norvegicus, INS1;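 further: cell death triggered by IL-1 beta plus TNF-alpha plus IFN-gamma mixture; protective hits raise ATP signal compared with cytokine alone wells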
Large T antigen = Large T antigen (Simian virus 40, UniProt P03070); assay type: functional, Betapolyomavirus macacae;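 further: Confirmatory-stage PubChem screen for compounds that inhibit SV40 T antigen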
Protein RecA = molecular target: T1, Protein RecA (Mycobacterium tuberculosis, UniProt P9WHJ3); experiment: Fluorescence Cell-Free Homogeneous Dose Retest to Identify Inhibitors of RecA-Intein Splicing Activity. [Related pubchem assays (depositor defined):AID2097, AID2223, AID489010, AID492950]; assay type: functional
T1 sequence (P9WHJ3 whole entry): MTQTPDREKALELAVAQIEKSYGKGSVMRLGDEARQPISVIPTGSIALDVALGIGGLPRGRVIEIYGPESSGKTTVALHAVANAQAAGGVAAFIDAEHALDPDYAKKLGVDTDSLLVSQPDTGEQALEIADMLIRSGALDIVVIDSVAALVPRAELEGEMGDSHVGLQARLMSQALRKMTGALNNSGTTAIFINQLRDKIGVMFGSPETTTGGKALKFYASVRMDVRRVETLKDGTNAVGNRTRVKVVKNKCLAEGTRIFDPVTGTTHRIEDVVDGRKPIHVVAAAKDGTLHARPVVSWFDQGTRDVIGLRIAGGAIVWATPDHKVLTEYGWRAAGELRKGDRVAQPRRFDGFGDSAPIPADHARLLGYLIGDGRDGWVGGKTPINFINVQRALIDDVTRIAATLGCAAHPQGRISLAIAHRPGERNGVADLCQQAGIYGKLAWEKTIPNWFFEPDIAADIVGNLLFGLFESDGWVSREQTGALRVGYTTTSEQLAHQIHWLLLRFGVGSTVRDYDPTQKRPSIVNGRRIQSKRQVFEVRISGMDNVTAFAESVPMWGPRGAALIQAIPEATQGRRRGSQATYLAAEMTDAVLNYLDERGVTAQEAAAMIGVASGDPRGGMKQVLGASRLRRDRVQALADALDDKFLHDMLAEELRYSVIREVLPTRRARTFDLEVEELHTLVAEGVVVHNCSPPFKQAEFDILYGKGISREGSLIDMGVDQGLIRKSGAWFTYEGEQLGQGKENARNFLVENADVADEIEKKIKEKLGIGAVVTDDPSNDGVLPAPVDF

[3] = molecular target: T2, Replicative DNA helicase DnaB (Mycobacterium tuberculosis, UniProt P9WMR3); experiment: DnaB intein splicing inhibitors, dose response, biochemical, cell-free fluorescence (AID 449749); assay type: functional
T2 sequence (P9WMR3 whole entry): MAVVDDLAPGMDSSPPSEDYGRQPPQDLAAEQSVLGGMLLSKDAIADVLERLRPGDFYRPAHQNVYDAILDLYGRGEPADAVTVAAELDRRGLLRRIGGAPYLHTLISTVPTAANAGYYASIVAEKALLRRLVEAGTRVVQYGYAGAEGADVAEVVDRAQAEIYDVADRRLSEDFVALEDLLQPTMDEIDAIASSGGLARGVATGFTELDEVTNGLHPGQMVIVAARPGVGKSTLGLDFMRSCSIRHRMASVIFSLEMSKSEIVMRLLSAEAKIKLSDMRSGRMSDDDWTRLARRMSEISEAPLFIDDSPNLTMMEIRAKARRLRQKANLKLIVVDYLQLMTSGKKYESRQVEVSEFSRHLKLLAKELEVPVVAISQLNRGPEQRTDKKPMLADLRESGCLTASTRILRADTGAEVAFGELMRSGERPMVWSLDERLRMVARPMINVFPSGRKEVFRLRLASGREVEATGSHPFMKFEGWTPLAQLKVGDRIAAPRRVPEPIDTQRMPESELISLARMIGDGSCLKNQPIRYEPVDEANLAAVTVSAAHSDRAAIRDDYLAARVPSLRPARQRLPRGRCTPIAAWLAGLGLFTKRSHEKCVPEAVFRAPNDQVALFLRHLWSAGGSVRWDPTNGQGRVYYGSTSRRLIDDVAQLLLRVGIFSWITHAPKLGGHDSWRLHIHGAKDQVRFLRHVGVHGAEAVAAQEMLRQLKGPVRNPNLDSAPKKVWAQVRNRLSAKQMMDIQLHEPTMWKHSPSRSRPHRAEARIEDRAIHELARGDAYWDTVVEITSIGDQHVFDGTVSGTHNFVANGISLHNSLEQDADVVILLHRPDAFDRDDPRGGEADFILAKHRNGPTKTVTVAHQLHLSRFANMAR

[4] = Trypanosoma cruzi growth suppression in host cells – NIH3T3 host cells, beta-gal luminescence, confirmation (AID 2044); assay type: functional, cell-based;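 further: intracellular parasites grown in NIH/3T3 mouse fibroblasts as host cells; luminescent beta-galactosidase reporter signal from transgenic T. cruzi replicating inside host cells; inhibitors lower the luminescence signal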
[5] = NIH3T3 cell viability loss – ATP luminescence, mouse fibroblasts, counter-screen, dose response (AID 2010); assay type: functional, cell-based;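 further: cells exposed to compound for about 90 hours before reading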
[6] = viability of PTEN-deleted HCT116 cells – cell-based, HCT116 PTEN knockout, dose response (AID 1047); assay type: functional;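 further: HCT116 colon tumor cells with PTEN knocked out; cells exposed to compound for 60 hours before readout; potency for loss of cell viability measured by luminescence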
Streptokinase A = molecular target: T3, Streptokinase A (Streptococcus pyogenes serotype M1, UniProt P10520); experiment: viability-normalized secreted streptokinase activity reduction – plasminogen activation absorbance, OD405, dose response (AID 1914); assay type: functional, Streptococcus pyogenes M1 GAS;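 further: secreted streptokinase activity via plasminogen activation per viability signal from cell pellet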
T3 sequence (P10520 whole entry): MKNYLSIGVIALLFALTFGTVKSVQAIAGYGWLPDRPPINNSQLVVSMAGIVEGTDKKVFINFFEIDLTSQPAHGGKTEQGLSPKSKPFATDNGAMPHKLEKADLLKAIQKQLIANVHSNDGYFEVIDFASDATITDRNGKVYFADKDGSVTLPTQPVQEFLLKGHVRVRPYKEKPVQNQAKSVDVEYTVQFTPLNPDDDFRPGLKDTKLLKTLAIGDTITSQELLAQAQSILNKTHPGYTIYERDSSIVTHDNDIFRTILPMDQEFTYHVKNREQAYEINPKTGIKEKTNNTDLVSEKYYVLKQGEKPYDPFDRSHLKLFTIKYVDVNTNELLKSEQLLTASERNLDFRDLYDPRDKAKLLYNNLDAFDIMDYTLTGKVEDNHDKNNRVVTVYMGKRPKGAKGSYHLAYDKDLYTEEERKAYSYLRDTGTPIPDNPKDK

Streptococcus = experiment: GAS UMAA2166 growth inhibition – luminescence, BacTiterGlo, counter-screen for streptokinase expression inhibitor project, dose response (AID 1915); assay type: functional, organism-based;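 further: potency for reduction of bacterial viability or growth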
[7] = system: Streptococcus sp. 'group A'; experiment: Streptococcus pyogenes SK(-)GAS viability under kanamycin – luminescence, BacTiterGlo, confirmation, counter-screen for streptokinase expression inhibitor project, dose response (AID 1900); assay type: functional, organism-based
[8] = viability of HCT116 lacking mutant beta-catenin – cell-based, human colon tumor, dose response (AID 1045); assay type: functional;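 further: HCT116 colon tumor cells with beta catenin knocked out; cells exposed to compound for 60 hours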
[9] = molecular target: T4, Corticotropin-releasing factor receptor 2/Corticotropin-releasing factor-binding protein (Homo sapiens, UniProt P24387+Q13324); experiment: Dose Response confirmation of uHTS hits for small molecule antagonists of the CRF-binding protein and CRF-R2 receptor complex.; assay type: functional; conditions: read-out: IC50_Mean
T4 sequence (Q13324 whole entry): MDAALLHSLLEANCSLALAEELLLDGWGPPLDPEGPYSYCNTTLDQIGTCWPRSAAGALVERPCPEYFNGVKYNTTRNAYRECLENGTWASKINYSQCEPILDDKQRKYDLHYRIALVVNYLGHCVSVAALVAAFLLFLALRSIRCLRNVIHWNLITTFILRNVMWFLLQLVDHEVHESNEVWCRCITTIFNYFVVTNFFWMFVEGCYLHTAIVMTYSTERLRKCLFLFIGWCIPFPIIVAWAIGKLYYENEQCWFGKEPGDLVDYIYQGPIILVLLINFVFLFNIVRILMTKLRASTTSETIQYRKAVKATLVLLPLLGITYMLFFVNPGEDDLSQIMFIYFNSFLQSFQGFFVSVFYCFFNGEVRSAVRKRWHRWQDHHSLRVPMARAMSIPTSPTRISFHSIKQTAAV
T4 sequence (P24387 whole entry): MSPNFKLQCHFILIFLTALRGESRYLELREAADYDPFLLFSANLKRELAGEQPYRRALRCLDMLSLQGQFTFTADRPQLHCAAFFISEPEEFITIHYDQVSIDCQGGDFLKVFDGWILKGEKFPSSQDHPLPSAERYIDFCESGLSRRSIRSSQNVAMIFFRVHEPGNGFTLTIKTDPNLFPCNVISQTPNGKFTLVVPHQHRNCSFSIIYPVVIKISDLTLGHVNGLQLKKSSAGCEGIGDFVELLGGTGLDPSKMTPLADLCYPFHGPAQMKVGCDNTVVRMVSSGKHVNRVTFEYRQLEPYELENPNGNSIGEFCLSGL

[10] = molecular target: T4, Corticotropin-releasing factor receptor 2/Corticotropin-releasing factor-binding protein; experiment: activators of CRF receptor 2 with binding protein – uHTS hits, confirmation (AID 602473); assay type: functional; conditions: read-out: EC50_Mean
[11] = molecular target: T5, Rac GTPase-activating protein 1 (Homo sapiens, UniProt Q9H0H5); experiment: blockers of MgcRacGAP-driven Rac1 GTP hydrolysis – biochemical, ADP Hunter fluorescence, primary and confirmatory, confirmation (AID 624330); assay type: functional
T5 sequence (Q9H0H5 whole entry): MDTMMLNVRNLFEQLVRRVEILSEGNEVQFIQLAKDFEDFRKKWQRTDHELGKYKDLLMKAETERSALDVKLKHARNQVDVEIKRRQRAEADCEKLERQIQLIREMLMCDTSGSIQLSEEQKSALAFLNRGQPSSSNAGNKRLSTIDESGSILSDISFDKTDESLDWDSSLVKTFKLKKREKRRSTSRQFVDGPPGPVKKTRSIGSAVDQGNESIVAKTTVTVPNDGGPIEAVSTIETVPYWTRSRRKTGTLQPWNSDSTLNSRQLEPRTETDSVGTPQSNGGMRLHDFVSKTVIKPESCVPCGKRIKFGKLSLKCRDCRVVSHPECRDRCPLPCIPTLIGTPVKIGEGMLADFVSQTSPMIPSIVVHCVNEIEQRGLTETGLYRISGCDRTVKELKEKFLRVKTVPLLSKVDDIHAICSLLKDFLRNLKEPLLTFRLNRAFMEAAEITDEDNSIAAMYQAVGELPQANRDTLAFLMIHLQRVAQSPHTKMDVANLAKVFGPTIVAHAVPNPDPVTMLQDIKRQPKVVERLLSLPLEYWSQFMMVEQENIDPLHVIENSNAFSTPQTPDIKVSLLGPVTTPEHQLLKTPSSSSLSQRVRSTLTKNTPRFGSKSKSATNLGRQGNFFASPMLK

Large T antigen, sequence (P03070 whole entry): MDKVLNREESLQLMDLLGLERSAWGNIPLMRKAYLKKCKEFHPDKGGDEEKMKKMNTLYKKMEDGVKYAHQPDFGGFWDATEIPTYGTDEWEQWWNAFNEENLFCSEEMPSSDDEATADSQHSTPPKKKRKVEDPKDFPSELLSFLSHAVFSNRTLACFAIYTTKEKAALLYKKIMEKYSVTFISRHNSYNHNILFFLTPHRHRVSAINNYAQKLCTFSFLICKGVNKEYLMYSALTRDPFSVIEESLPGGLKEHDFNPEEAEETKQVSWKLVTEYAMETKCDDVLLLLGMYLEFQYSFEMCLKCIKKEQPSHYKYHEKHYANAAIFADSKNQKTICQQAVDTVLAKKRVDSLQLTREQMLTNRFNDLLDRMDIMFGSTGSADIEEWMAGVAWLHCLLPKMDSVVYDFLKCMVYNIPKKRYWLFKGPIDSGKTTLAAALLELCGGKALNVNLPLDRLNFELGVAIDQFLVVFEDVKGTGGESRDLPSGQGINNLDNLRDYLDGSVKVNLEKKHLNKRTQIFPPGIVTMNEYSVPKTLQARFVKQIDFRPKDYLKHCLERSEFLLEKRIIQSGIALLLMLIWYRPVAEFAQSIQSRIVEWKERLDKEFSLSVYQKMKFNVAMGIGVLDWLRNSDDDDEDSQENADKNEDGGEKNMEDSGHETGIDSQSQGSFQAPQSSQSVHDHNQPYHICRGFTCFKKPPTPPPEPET

O=C(CN(c1cccc(C(F)(F)F)c1)S(=O)(=O)c1ccc(Cl)c([N+](=O)[O-])c1)NCc1ccccc1Cl
CC50 [1]: > 50 µM (active) | AC50 [2]: 1.72 µM (active)

CCN1C(=O)/C(=C/c2nc3ccccc3c(=O)n2-c2ccccc2)c2ccccc21
IC50 (H9c2): > 79 µM (inactive)

COc1ccc(-c2c([C@H]3[C@H]4C=CC[C@@H](C)[C@@H]4C(=O)N3Cc3ccccc3)ccc3ccccc23)cc1
AC50 (INS1): 9.01 µM (active)

CCOc1cc(/C=C2/NC(=O)N(CC(=O)OC)C2=O)ccc1O
IC50 (Large T antigen): 12.5 µM (active)

Cc1cc(F)ccc1S(=O)(=O)N(C(=O)c1ccncc1)c1ccc(OC(=O)c2ccncc2)cc1
IC50 (Large T antigen): 50.7 µM (active) | EC50 (Protein RecA): 14.1 µM (active) | AC50 [3]: 4.53 µM (active)

CCOC(=O)Cc1nnc(O)c2ccccc12
IC50 (H9c2): 11.1 µM (active)

O=C(c1cccc(-c2ccc(O)cc2)c1)N1CCOCC1
IC50 (Large T antigen): 10.2 µM (active)

CCOc1cccc(Nc2cc3n(c(=O)n2)CCc2cc(OC)c(OC)cc2-3)c1
IC50 (H9c2): 12.8 µM (active)

O=C(Nc1ccc(Cl)c(Cl)c1)Nc1nnc(CC2=CCCCC2)s1
AC50 (INS1): 3.51 µM (active)

CCOc1ccc2nc(O)c(CN(CCO)C3(c4nnnn4C4CCCCC4)CCCCC3)cc2c1
IC50 (H9c2): 26.4 µM (active)

COc1ccc2nc(O)c(CN(Cc3ccco3)C(c3nnnn3Cc3ccccc3)C(C)C)cc2c1 (stereo not drawn)
EC50 [4]: > 60 µM (not active) | IC50 (H9c2): > 79 µM (inactive) | EC50 [5]: > 60 µM (not active)

CCS(=O)(=O)Nc1ccc(-c2cc(-c3ccccc3)c3cc(C)ccc3n2)cc1
EC50 [6]: 27.6 µM (active) | EC50 (Streptokinase A): > 150 µM (not active) | EC50 (Streptococcus): 7.65 µM (active) | EC50 [7]: 7.31 µM (active) | AC50 [2]: 3.42 µM (active) | EC50 [8]: 24.1 µM (active)

O=C1CCSc2c1ccc1ccccc21
IC50 [9]: > 47.1 µM (inactive) | EC50 [10]: > 53 µM (inactive)

CC(NC(=O)Cn1nc(C(=O)O)c2ccccc2c1=O)c1ccccc1 (stereo not drawn)
IC50 (H9c2): 18.3 µM (active)

O=C(Nc1ccccc1)Nc1ccc(O)c2ccccc12
EC50 (Protein RecA): 0.762 µM (active) | AC50 [2]: 2.56 µM (active) | AC50 [3]: 9.08 µM (active)

C/C(=N\CCCn1ccnc1)c1c(-c2ccccc2)[nH]n(-c2nc3ccccc3s2)c1=O
IC50 (H9c2): > 79 µM (inactive)

COc1cc(/C=N\NC(=O)c2c(C)nc3cc(C)ccn23)ccc1O
IC50 (Large T antigen): 13.4 µM (active) | IC50 [11]: 33.3 µM (active)

Cc1nc(Cl)cc(N/N=C/c2ccc(O)cc2)n1
IC50 (Large T antigen): 8.13 µM (active)

C/C(CC(=O)Nc1ccc(N(C)C)cc1)=N\NC(=O)c1ccc([N+](=O)[O-])cc1Cl
IC50 (Large T antigen): 9.88 µM (active) | IC50 [11]: 66.7 µM (active)

CCOc1cc(/C=N\NC(=O)CC(=O)NCCc2ccccc2)ccc1O
IC50 (Large T antigen): 7.94 µM (active) | IC50 [11]: 46.5 µM (active)

C/C(=N/NC(=O)CSc1nc2ccccc2n1C)c1ccc(O)cc1
IC50 (Large T antigen): 30.9 µM (active) | IC50 [11]: 138 µM (active)
